Test results from patent US6869589B1, “Cryptate compounds and methods for diagnosis and therapy” (Australian Nuclear Science & Technology Organization, priority 1999, dated 2005).

Experiment: Biodistribution of ^64Cu complexes in balb/c mice
Protocol: The biodistribution of the ^64Cu complexes of compounds (1), (3) and (4) (0.10 ml intravenous injection) were evaluated in balb/c mice (5 animals per time point) at 3, 5, 10, 15, 20 and 30 minute time intervals. Biodistribution studies were performed in duplicate.

## C1CNCC2CNCCNCC(CN1)CNCCNC2.[64Cu+2] [^64Cu-labelled compound (4)]
BLADDER, 3 MIN
  % injected dose per gram: 13.15 % INJECTED DOSE PER GRAM
BLADDER, 5 MIN
  % injected dose per gram: 28.05 % INJECTED DOSE PER GRAM
BLADDER, 10 MIN
  % injected dose per gram: 69.91 % INJECTED DOSE PER GRAM
BLADDER, 15 MIN
  % injected dose per gram: 8.17 % INJECTED DOSE PER GRAM
BLADDER, 20 MIN
  % injected dose per gram: 16.38 % INJECTED DOSE PER GRAM
BLADDER, 30 MIN
  % injected dose per gram: 25.38 % INJECTED DOSE PER GRAM
BLOOD, 3 MIN
  % injected dose per gram: 8.25 % INJECTED DOSE PER GRAM
BLOOD, 5 MIN
  % injected dose per gram: 7.08 % INJECTED DOSE PER GRAM
BLOOD, 10 MIN
  % injected dose per gram: 4.41 % INJECTED DOSE PER GRAM
BLOOD, 15 MIN
  % injected dose per gram: 2.71 % INJECTED DOSE PER GRAM
BLOOD, 20 MIN
  % injected dose per gram: 1.40 % INJECTED DOSE PER GRAM
BLOOD, 30 MIN
  % injected dose per gram: 1.07 % INJECTED DOSE PER GRAM
BONE, 3 MIN
  % injected dose per gram: 1.60 % INJECTED DOSE PER GRAM
BONE, 5 MIN
  % injected dose per gram: 1.56 % INJECTED DOSE PER GRAM
BONE, 10 MIN
  % injected dose per gram: 1.28 % INJECTED DOSE PER GRAM
BONE, 15 MIN
  % injected dose per gram: 1.60 % INJECTED DOSE PER GRAM
BONE, 20 MIN
  % injected dose per gram: 0.89 % INJECTED DOSE PER GRAM
BONE, 30 MIN
  % injected dose per gram: 0.65 % INJECTED DOSE PER GRAM
GIT, 3 MIN
  % injected dose per gram: 2.62 % INJECTED DOSE PER GRAM
GIT, 5 MIN
  % injected dose per gram: 2.16 % INJECTED DOSE PER GRAM
GIT, 10 MIN
  % injected dose per gram: 1.49 % INJECTED DOSE PER GRAM
GIT, 15 MIN
  % injected dose per gram: 1.07 % INJECTED DOSE PER GRAM
GIT, 20 MIN
  % injected dose per gram: 0.89 % INJECTED DOSE PER GRAM
GIT, 30 MIN
  % injected dose per gram: 0.80 % INJECTED DOSE PER GRAM
HEART, 3 MIN
  % injected dose per gram: 3.25 % INJECTED DOSE PER GRAM
HEART, 5 MIN
  % injected dose per gram: 2.66 % INJECTED DOSE PER GRAM
HEART, 10 MIN
  % injected dose per gram: 1.60 % INJECTED DOSE PER GRAM
HEART, 15 MIN
  % injected dose per gram: 1.08 % INJECTED DOSE PER GRAM
HEART, 20 MIN
  % injected dose per gram: 0.51 % INJECTED DOSE PER GRAM
HEART, 30 MIN
  % injected dose per gram: 0.47 % INJECTED DOSE PER GRAM
KIDNEY, 3 MIN
  % injected dose per gram: 20.08 % INJECTED DOSE PER GRAM
KIDNEY, 5 MIN
  % injected dose per gram: 18.62 % INJECTED DOSE PER GRAM
KIDNEY, 10 MIN
  % injected dose per gram: 14.79 % INJECTED DOSE PER GRAM
KIDNEY, 15 MIN
  % injected dose per gram: 7.52 % INJECTED DOSE PER GRAM
KIDNEY, 20 MIN
  % injected dose per gram: 25.99 % INJECTED DOSE PER GRAM
KIDNEY, 30 MIN
  % injected dose per gram: 30.26 % INJECTED DOSE PER GRAM
LIVER, 3 MIN
  % injected dose per gram: 1.81 % INJECTED DOSE PER GRAM
LIVER, 5 MIN
  % injected dose per gram: 1.59 % INJECTED DOSE PER GRAM
LIVER, 10 MIN
  % injected dose per gram: 1.16 % INJECTED DOSE PER GRAM
LIVER, 15 MIN
  % injected dose per gram: 0.64 % INJECTED DOSE PER GRAM
LIVER, 20 MIN
  % injected dose per gram: 5.01 % INJECTED DOSE PER GRAM
LIVER, 30 MIN
  % injected dose per gram: 5.76 % INJECTED DOSE PER GRAM
LUNGS, 3 MIN
  % injected dose per gram: 5.85 % INJECTED DOSE PER GRAM
LUNGS, 5 MIN
  % injected dose per gram: 5.28 % INJECTED DOSE PER GRAM
LUNGS, 10 MIN
  % injected dose per gram: 2.84 % INJECTED DOSE PER GRAM
LUNGS, 15 MIN
  % injected dose per gram: 2.09 % INJECTED DOSE PER GRAM
LUNGS, 20 MIN
  % injected dose per gram: 1.13 % INJECTED DOSE PER GRAM
LUNGS, 30 MIN
  % injected dose per gram: 0.92 % INJECTED DOSE PER GRAM
MUSCLE, 3 MIN
  % injected dose per gram: 1.76 % INJECTED DOSE PER GRAM
MUSCLE, 5 MIN
  % injected dose per gram: 2.10 % INJECTED DOSE PER GRAM
MUSCLE, 10 MIN
  % injected dose per gram: 1.24 % INJECTED DOSE PER GRAM
MUSCLE, 15 MIN
  % injected dose per gram: 1.73 % INJECTED DOSE PER GRAM
MUSCLE, 20 MIN
  % injected dose per gram: 0.36 % INJECTED DOSE PER GRAM
MUSCLE, 30 MIN
  % injected dose per gram: 1.27 % INJECTED DOSE PER GRAM
SKIN, 3 MIN
  % injected dose per gram: 5.98 % INJECTED DOSE PER GRAM
SKIN, 5 MIN
  % injected dose per gram: 6.46 % INJECTED DOSE PER GRAM
SKIN, 10 MIN
  % injected dose per gram: 4.21 % INJECTED DOSE PER GRAM
SKIN, 15 MIN
  % injected dose per gram: 2.76 % INJECTED DOSE PER GRAM
SKIN, 20 MIN
  % injected dose per gram: 1.73 % INJECTED DOSE PER GRAM
SKIN, 30 MIN
  % injected dose per gram: 1.42 % INJECTED DOSE PER GRAM
SPLEEN, 3 MIN
  % injected dose per gram: 2.26 % INJECTED DOSE PER GRAM
SPLEEN, 5 MIN
  % injected dose per gram: 2.17 % INJECTED DOSE PER GRAM
SPLEEN, 10 MIN
  % injected dose per gram: 1.28 % INJECTED DOSE PER GRAM
SPLEEN, 15 MIN
  % injected dose per gram: 0.67 % INJECTED DOSE PER GRAM
SPLEEN, 20 MIN
  % injected dose per gram: 0.52 % INJECTED DOSE PER GRAM
SPLEEN, 30 MIN
  % injected dose per gram: 0.35 % INJECTED DOSE PER GRAM
STOMACH, 3 MIN
  % injected dose per gram: 3.53 % INJECTED DOSE PER GRAM
STOMACH, 5 MIN
  % injected dose per gram: 3.04 % INJECTED DOSE PER GRAM
STOMACH, 10 MIN
  % injected dose per gram: 1.84 % INJECTED DOSE PER GRAM
STOMACH, 15 MIN
  % injected dose per gram: 0.89 % INJECTED DOSE PER GRAM
STOMACH, 20 MIN
  % injected dose per gram: 0.70 % INJECTED DOSE PER GRAM
STOMACH, 30 MIN
  % injected dose per gram: 0.65 % INJECTED DOSE PER GRAM

## NC12CNCCNCC(N)(CNCCNC1)CNCCNC2 [compound (1)]
If the ligand detaches from the antibody
  Clearance of the complex (biodistribution, in words): clear rapidly from the system
